Source: patent US6413517B1, “Identification of broadly reactive DR restricted epitopes” (Epimmune, Inc., priority 1997, dated 2002)
Read-outs that look alike come from different tables or passages of the source.

Tests used:
DRB1*0101 (DR1) = molecular target: T1, DRB1*0101 (DR1) (Homo sapiens, UniProt P01903+P01911, A100R/D57E/F55L/F60I/F76Y/I96L/L162R/M171V/P40L/Q125E/R42F/V115G/Y59C); test: biochemical; format: binding; conditions: Binding Capacity (IC 50% nM) DR1,4,7 DRB1
T1 construct: Epstein-Barr virus (EBV) transformed homozygous cell lines were used as sources; endogenous in cells; host or cells: LG2 (EBV-transformed homozygous B cell line)

DRB1*0401 (DR4w4) = molecular target: T2, DRB1*0401 (DR4w4) (Homo sapiens, UniProt P01903+P01911, A100K/A169T/F76Y/I96L/K127E/L162R/M171V/N62H/P40V/Q125Y/R42H/S133A/S149N/S66Y/V115G/V209L/W38E); test: biochemical; format: binding
T2 construct: Epstein-Barr virus (EBV) transformed homozygous cell lines were used as sources; endogenous in cells; host or cells: PREISS (EBV-transformed homozygous B cell line)

DRB1*0701 (DR7) = molecular target: T3, DRB1*0701 (DR7) (Homo sapiens, UniProt P01903+P01911, A100R/A102G/A103Q/D57E/D86V/E43K/F76Y/K127E/L162R/M171V/P40G/Q125H/Q99D/R33Q/R42Y/R54Q/S133A/S66F/T210M/V115G/Y107V/Y59L/Y89S); test: biochemical; format: binding
T3 construct: Epstein-Barr virus (EBV) transformed homozygous cell lines were used as sources; endogenous in cells; host or cells: PITOUT (EBV-transformed homozygous B cell line)

DRB1*1501 (DR2w2b) = molecular target: T4, DRB1*1501 (DR2w2b) (Homo sapiens, UniProt P01903+P01911); test: biochemical; format: binding
T4 construct: expressed in transfected cells; host or cells: transfected fibroblasts L466.1

DRB5*0101 (DR2w2a) = molecular target: T5, DRB5*0101 (DR2w2a) (Homo sapiens, UniProt P01903+Q30154); test: biochemical; format: binding
T5 construct: Epstein-Barr virus (EBV) transformed homozygous cell lines were used as sources; endogenous in cells; host or cells: GM3107 (EBV-transformed homozygous B cell line)

DRB1*0405 (DR4w15) = molecular target: T6, DRB1*0405 (DR4w15) (Homo sapiens, UniProt P01903+P01911, A100R/A169T/D86S/F76Y/I96L/K127E/L162R/M171V/N62H/P40V/Q125Y/R42H/S133A/S149N/S66Y/V115G/V209L/W38E); test: biochemical; format: binding
T6 construct: Epstein-Barr virus (EBV) transformed homozygous cell lines were used as sources; endogenous in cells; host or cells: KT3 (EBV-transformed homozygous B cell line)

DRB1*1101 (DR5w11) = molecular target: T7, DRB1*1101 (DR5w11) (Homo sapiens, UniProt P01903+P01911, A100R/A169T/A87E/I96F/K41T/L162R/M171V/P40S/Q125H/Q178H/Q39Y/Q99D/R42S/S66Y/T262R/V115G/W38E); test: biochemical; format: binding
T7 construct: Epstein-Barr virus (EBV) transformed homozygous cell lines were used as sources; endogenous in cells; host or cells: SWEIG (EBV-transformed homozygous B cell line)

DRB1*1302 (DR6w19) = molecular target: T8, DRB1*1302 (DR6w19) (Homo sapiens, UniProt P01903+P01911, A100E/A169T/K41T/L162R/M171V/P40S/Q125H/Q178H/Q39Y/Q99D/R42S/S66N/T262R/V115G/W38E/Y61H); test: biochemical; format: binding
T8 construct: Epstein-Barr virus (EBV) transformed homozygous cell lines were used as sources; the source of Class II molecules the EBV transformed homozygous cell line H0301; endogenous in cells; host or cells: H0301 (EBV-transformed homozygous B cell line)

DRB1*0802 (DR8w2) = molecular target: T9, DRB1*0802 (DR8w2) (Homo sapiens, UniProt P01903+P01911, A100R/A103L/A169T/F76Y/H45Y/I96F/K41T/L162R/M171V/P40S/Q125H/Q178H/Q39Y/Q99D/R218S/R42G/S66Y/V115G/W38E); test: biochemical; format: binding
T9 construct: Epstein-Barr virus (EBV) transformed homozygous cell lines were used as sources; endogenous in cells; host or cells: OLL (EBV-transformed homozygous B cell line)

DRB1*0901 (DR9) = molecular target: T10, DRB1*0901 (DR9) (Homo sapiens, UniProt P01903+P01911, A100R/A103E/D57H/D86V/F55Y/F60I/F76Y/I96F/K127E/L162R/M171V/P40D/Q125H/Q99R/R33Q/R42F/S133A/S66N/T210M/V115G/W38K/Y107V/Y59G/Y89S); test: biochemical; format: binding
T10 construct: Epstein-Barr virus (EBV) transformed homozygous cell lines were used as sources; endogenous in cells

DRB1*1201 (DR5w12) = molecular target: T11, DRB1*1201 (DR5w12) (Homo sapiens, UniProt P01903+P01911, A100R/A169T/D57E/D86V/F55L/H45Y/K41T/L162R/M171V/P40S/Q125H/Q178H/Q39Y/Q99D/R42G/S66L/T262R/V114A/V67L/W38E/Y59H/Y61H/Y89S); test: biochemical; format: binding
T11 construct: Epstein-Barr virus (EBV) transformed homozygous cell lines were used as sources; endogenous in cells; host or cells: Herluf (EBV-transformed homozygous B cell line)

DRB1*0301 (DR3w17) [1] = molecular target: T12, DRB1*0301 (DR3w17) (Homo sapiens, UniProt P01903+P01911, A100K/A102G/A103R/A169T/F55Y/I96L/K41T/L162R/M171V/P40S/Q125H/Q178H/Q39Y/R42S/S66N/T106N/T262R/W38E/Y61H); conditions: read-out: Binding Capacity (IC 50% nM) Other Alleles DR3
DRB1*0301 (DR3w17) [2] = molecular target: T12, DRB1*0301 (DR3w17); test: biochemical; conditions: Binding Capacity (IC50% nM) DR3
[3] = Binding Capacity (IC 50% nM) DR1,4,7 DR4w4
[4] = Binding Capacity (IC 50% nM) DR1,4,7 DR7
[5] = read-out: Binding Capacity (IC 50% nM) Other Alleles DR2w2b
[6] = Binding Capacity (IC 50% nM) Other Alleles DR2w2a
[7] = Binding Capacity (IC 50% nM) Other Alleles DR4w15
[8] = read-out: Binding Capacity (IC 50% nM) Other Alleles DR5w11
[9] = Binding Capacity (IC50% nM) DR6w19
[10] = Binding Capacity (IC 50% nM) Other Alleles DR6w19
[11] = read-out: Binding Capacity (IC 50% nM) Other Alleles DR8w2
[12] = Binding Capacity (IC 50% nM) Other Alleles DR9
[13] = Binding Capacity (IC50% nM) DR5w12
[14] = read-out: Binding Capacity (IC 50% nM) Other Alleles DR5w12
[15] = Binding Capacity (IC 50% nM) Other Alleles DR2w2b
[16] = read-out: Binding Capacity (IC 50% nM) Other Alleles DR2w2a
[17] = read-out: Binding Capacity (IC 50% nM) Other Alleles DR4w15
[18] = Binding Capacity (IC50% nM) DR8w2
[19] = Binding Capacity (IC50% nM) DR9
[20] = read-out: Binding Capacity (IC 50% nM) Other Alleles DR9
[21] = read-out: Binding Capacity (IC 50% nM) Other Alleles DR6w19

T7 sequence (P01903 26-254, other chains not shown): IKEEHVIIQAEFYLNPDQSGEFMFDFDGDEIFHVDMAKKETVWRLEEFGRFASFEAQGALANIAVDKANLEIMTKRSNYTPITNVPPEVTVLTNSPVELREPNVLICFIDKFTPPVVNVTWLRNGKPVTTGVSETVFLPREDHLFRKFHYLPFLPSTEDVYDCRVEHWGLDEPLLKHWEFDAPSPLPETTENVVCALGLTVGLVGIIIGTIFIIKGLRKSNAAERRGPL

SMILES | IC50 (DRB1*0101 (DR1)) [nM] | IC50 (DRB1*0401 (DR4w4); [3]) [nM] | IC50 (DRB1*0701 (DR7); [4]) [nM] | IC50 (DRB1*1501 (DR2w2b); [5]) [nM] | IC50 (DRB5*0101 (DR2w2a); [6]) [nM] | IC50 (DRB1*0405 (DR4w15); [7]) [nM] | IC50 (DRB1*1101 (DR5w11); [8]) [nM] | IC50 (DRB1*1302 (DR6w19); [9]) [nM] | IC50 (DRB1*1302 (DR6w19); [10]) [nM] | IC50 (DRB1*0802 (DR8w2); [11]) [nM] | IC50 (DRB1*0901 (DR9); [12]) [nM] | IC50 (DRB1*1201 (DR5w12); [13]) [nM] | IC50 (DRB1*1201 (DR5w12); [14]) [nM] | IC50 (DRB1*0301 (DR3w17) [1]) [nM] | IC50 (DRB1*0301 (DR3w17) [2]) [nM] | IC50 (DRB1*1501 (DR2w2b); [15]) [nM] | IC50 (DRB5*0101 (DR2w2a); [16]) [nM] | IC50 (DRB1*0405 (DR4w15); [17]) [nM] | IC50 (DRB1*0802 (DR8w2); [18]) [nM] | IC50 (DRB1*0901 (DR9); [19]) [nM] | other results
CC[C@H](C)[C@H](N)C(=O)N1CCC[C@H]1C(=O)N[C@@H](CCC(N)=O)C(=O)N[C@@H](CCC(=O)O)C(=O)N[C@@H](Cc1c[nH]c2ccccc12)C(=O)N[C@@H](CCCCN)C(=O)N1CCC[C@H]1C(=O)N[C@@H](C)C(=O)N[C@H](C(=O)N[C@H](C(=O)N[C@H](C(=O)N[C@@H](CCCCN)C(=O)N[C@H](C(=O)N[C@@H](CC(C)C)C(=O)N1CCC[C@H]1C(=O)N[C@@H](C)C(=O)O)C(C)C)C(C)C)[C@@H](C)O)[C@@H](C)CC [Peptide 1136.21] | < 1000 | < 1000 | < 1000 | > 1000 | < 1000 | < 1000 | > 1000 | 259 | < 1000 | > 1000 | < 1000 | > 10000 | > 1000 | > 1000 | > 10000 | – | – | – | – | – | –
CC[C@H](C)[C@H](NC(=O)[C@H](CC(=O)O)NC(=O)[C@H](CC(C)C)NC(=O)[C@@H](NC(=O)CNC(=O)[C@@H](NC(=O)[C@@H](NC(=O)[C@@H](NC(=O)[C@@H](NC(=O)[C@H](C)NC(=O)[C@H](CC(C)C)NC(=O)[C@@H](NC(=O)[C@H](CC(N)=O)NC(=O)[C@H](CO)NC(=O)[C@H](CC(C)C)NC(=O)[C@@H](N)CC(N)=O)C(C)C)[C@@H](C)O)[C@@H](C)CC)[C@@H](C)O)[C@@H](C)O)C(C)C)C(=O)O [Peptide 1136.24] | < 1000 | – | < 1000 | – | – | – | > 1000 | – | < 1000 | > 1000 | – | > 10000 | > 1000 | > 1000 | > 10000 | < 1000 | > 1000 | > 1000 | > 10000 | > 10000 | IC50 (DRB1*0401 (DR4w4); read-out: Binding Capacity (IC 50% nM) DR1,4,7 DR4w4): > 1000 nM; IC50 (DRB1*1101 (DR5w11); Binding Capacity (IC50% nM) DR5w11): > 10000 nM; IC50 (DRB1*0901 (DR9); [20]): > 1000 nM
CC[C@H](C)[C@H](NC(=O)[C@H](CC(C)C)NC(=O)[C@H](CC(=O)O)NC(=O)[C@@H](NC(=O)[C@H](Cc1ccccc1)NC(=O)[C@H](Cc1ccc(O)cc1)NC(=O)[C@H](Cc1c[nH]cn1)NC(=O)[C@H](Cc1c[nH]cn1)NC(=O)[C@@H](N)[C@@H](C)O)C(C)C)C(=O)NCC(=O)NCC(=O)N[C@@H](C)C(=O)N[C@@H](CCSC)C(=O)N[C@@H](CC(C)C)C(=O)N[C@@H](CO)C(=O)N[C@@H](CC(C)C)C(=O)O [Peptide 1136.47] | < 1000 | < 1000 | – | – | < 1000 | – | > 1000 | > 10000 | – | > 1000 | – | > 10000 | > 1000 | > 1000 | > 10000 | < 1000 | – | > 1000 | > 10000 | > 10000 | IC50 (DRB1*0701 (DR7); read-out: Binding Capacity (IC 50% nM) DR1,4,7 DR7): > 1000 nM; IC50 (DRB1*1302 (DR6w19); [21]): > 1000 nM; IC50 (DRB1*0901 (DR9); [20]): > 1000 nM
CC(C)[C@H](NC(=O)[C@H](CO)NC(=O)[C@@H](NC(=O)[C@H](C)NC(=O)[C@H](CO)NC(=O)[C@H](CO)NC(=O)[C@H](C)NC(=O)[C@H](C)NC(=O)[C@H](Cc1ccc(O)cc1)NC(=O)[C@@H](NC(=O)[C@H](CO)NC(=O)CNC(=O)[C@H](CCC(N)=O)NC(=O)[C@@H]1CCCN1C(=O)[C@@H](N)CCC(=O)O)[C@@H](C)O)[C@@H](C)O)C(=O)N[C@@H](CC(=O)O)C(=O)O [Peptide 1136.71] | < 1000 | < 1000 | < 1000 | > 1000 | – | < 1000 | > 1000 | > 10000 | – | > 1000 | < 1000 | > 10000 | > 1000 | > 1000 | > 10000 | – | > 1000 | – | > 10000 | – | IC50 (DRB1*1501 (DR2w2b); Binding Capacity (IC50% nM) DR2w2b): > 10000 nM; IC50 (DRB1*1302 (DR6w19); [21]): > 1000 nM
CC(C)C[C@H](NC(=O)[C@H](CC(C)C)NC(=O)CNC(=O)[C@H](C)NC(=O)[C@H](CC(C)C)NC(=O)[C@@H](NC(=O)[C@H](CO)NC(=O)[C@@H](NC(=O)[C@H](C)NC(=O)[C@H](CC(C)C)NC(=O)[C@H](CCCCN)NC(=O)[C@H](Cc1ccc(O)cc1)NC(=O)[C@H](CCCCN)NC(=O)[C@H](CO)NC(=O)[C@@H](N)CCCCN)[C@@H](C)O)C(C)C)C(=O)O [Peptide 1188.16] | < 1000 | < 1000 | < 1000 | > 1000 | < 1000 | < 1000 | – | – | < 1000 | – | < 1000 | > 10000 | > 1000 | > 1000 | > 10000 | – | – | – | – | – | IC50 (DRB1*1101 (DR5w11); Binding Capacity (IC 50% nM) Other Alleles DR5w11): < 1000 nM; IC50 (DRB1*0802 (DR8w2); Binding Capacity (IC 50% nM) Other Alleles DR8w2): < 1000 nM
